Data from patent US20210161868A1, “ANTI-INFLAMMATORY THERAPY IN ARRHYTHMOGENIC CARDIOMYOPATHY (ACM)” (Beth Israel Deaconess Medical Center, Inc., priority 2018, published 2021).
Entries after “also recorded” stand apart in the source; their conditions may differ.

How the values were obtained:
[1] = system: neonatal rat ventricular myocytes (NRVMs) expressing JUP^2157del2; assay: ACM features (protein distribution, immunofluorescence) in NRVMs expressing mutant plakoglobin; assay type: cell-based; design: pattern of distribution of plakoglobin, Cx43 and GSK3β: dose or concentration left out as unconfirmed
Text: (§1) All animal studies were in full compliance with policies of Beth Israel Deaconess Medical Center, Johns Hopkins School of Medicine and St. George's University of London. They also conformed to the Guide for the Care and Use of Laboratory Animals from the National Institutes of Health (NIH publication no. 85-23, revised 1996). In vitro studies involved transfection of cultured neonatal rat ventricular myocytes with a mutant allele of the desmosomal protein plakoglobin (2157de12) as previously described.^15 In vivo studies were performed in mice with homozygous knock-in of a mutant form of Dsg2, the gene encoding the desmosomal cadherin desmoglein-2 (Dsg2^mut/mut mice) as previously described.^6 This mutation entails loss of exons 4 and 5 which causes a frameshift and premature termination of translation.
Primary cultures were prepared from disaggregated ventricles of 1-day-old Wistar rat pups (Charles River) as previously described.^15 Cell suspensions were pre-plated to reduce fibroblast content, placed in collagen-coated chamber slides at a density of 2.4×10^5 cells/cm^2, and grown for 4 days at 37° C. in M199 medium (GIBCO) (supplemented with penicillin, 20 U/mL; streptomycin, 20 μg/mL; 10% neonatal calf serum and 0.1 mM bromodeoxyuridine) in a humidified atmosphere containing 1% CO2. Epinephrine (0.01 μmol/mL) was added during the first 24 hours of culture. […]

Dsg2^mut/mut mice = assay: Morphometry, echocardiography and electrocardiography in Dsg2^mut/mut mice; assay type: in vivo
Text: as §1
Three cohorts of mice at 8 weeks of age were anesthetized and implanted with subcutaneous osmotic mini-pumps (Alzet, Model 1004). These included: 1) Dsg2^mut/mut mice with pumps containing 50 μg/μL Bay11-7082 in a vehicle of 65% DMSO, 15% ethanol, and 20% saline; 2) Dsg2^mut/mut mice with pumps containing an equivalent volume of vehicle; and 3) wildtype mice with pumps containing vehicle. Mice in cohort 1 received 5 mg/kg/day of Bay11-7082 by continuous infusion; those in cohorts 2 and 3 received an equivalent volume of vehicle each day for 4 weeks. At 12 weeks of age, mice were re-anesthetized and new Alzet pumps were implanted for an additional 4 weeks of treatment.
At the end of the 8 week drug treatment protocol, cardiac function was assessed in all mice by transthoracic echocardiography and electrocardiography (ECG) as previously described. Echocardio-graphic measurements were made according to American Society of Echocardiography guidelines^48 in non-sedated mice using a Vevo 2100 Visualsonic imaging system. Parasternal long-axis views of the left ventricle (LV), at the level of the papillary muscles, were acquired at a sweep speed of 200 mm/second. Three to five measurements were acquired from each mouse and averaged to assess LV function as previously described. ECG measurements made in anesthetized mice in which wire electrodes had been sutured in place in the right and left arms to obtain standard lead I ECG recordings. Recordings were captured via PowerLab and analyzed via the LabChart Pro ECG Analysis Add-on Software (LabChart Pro 8, MLS360/8, AD Intruments). ECGs were recorded for 15 minutes and all ECG wave and amplitude parameters were analyzed as signal averaged ECGs (SAECGs). Following completion of functional studies, mice were euthanized and hearts were excised and processed for additional studies either by freezing fresh tissue (−80C) or fixing tissue in 10% buffered formalin and embedding in paraffin.

[2] = Dsg2^mut/mut + Bay11-7082, n=17, mean±SEM, 8 week treatment
[3] = Dsg2^mut/mut mice, continuous infusion over 8 weeks

Compound: Cc1ccc(S(=O)(=O)/C=C/C#N)cc1 [Bay 11-7082]
- in vitro readouts of the ACM phenotype (plakoglobin, Cx43, apoptosis, cytokines) ([1]; NRVMs expressing mutant plakoglobin): blocked; also recorded: completely reversed
- pattern of distribution of plakoglobin, Cx43 and GSK3β ([1]; transfected NRVMs, Bay11-7082, 24 hours): normalized; also recorded: indistinguishable from that seen in control
- FS, fractional shortening (Dsg2^mut/mut mice; [2]): 49.5 ± 1.9%
- HW/BW, heart weight/body weight (Dsg2^mut/mut mice; [2]): 4.7 ± 0.1 mg/g
- IVSd, interventricular septum thickness at end-diastole (Dsg2^mut/mut mice; [2]): 0.95 ± 0.02 mm
- LVIDd, left ventricular internal diameter at end-diastole (Dsg2^mut/mut mice; [2]): 2.96 ± 0.06 mm
- LVIDs, left ventricular internal diameter at end-systole (Dsg2^mut/mut mice; [2]): 1.50 ± 0.08 mm
- LVM, left ventricular mass (Dsg2^mut/mut mice; [2]): 92.9 ± 3.08 mg
- P-Amp, P-wave amplitude (Dsg2^mut/mut mice; [2]): 0.06 ± 0.003 mV
- PR-I, P-R interval (Dsg2^mut/mut mice; [2]): 39.0 ± 0.9 ms
- Pd, P-wave duration (Dsg2^mut/mut mice; [2]): 10.1 ± 0.5 ms
- Q-Amp, Q-wave amplitude (Dsg2^mut/mut mice; [2]): −0.06 ± 0.01 mV
- QRSd, QRS wave duration (Dsg2^mut/mut mice; [2]): 11.4 ± 0.4 ms
- R-Amp, R-wave amplitude (Dsg2^mut/mut mice; [2]): 0.66 ± 0.04 mV
- RR-I, R-R interval (Dsg2^mut/mut mice; [2]): 118 ± 2.5 ms
- S-Amp, S-wave amplitude (Dsg2^mut/mut mice; [2]): −0.09 ± 0.04 mV
- abnormalities in the signal averaged ECG (Dsg2^mut/mut mice; [3]): corrected
- contractile function (Dsg2^mut/mut mice; [3]): normalized
- treated ACM mice that failed to respond to NFκB inhibition (Dsg2^mut/mut mice; related to technical failure of drug delivery by Alzet minipumps): 3 of 17
